# Measured values taken from patent publication US10676504B2 (Colorado State University Research Foundation, priority 2015, dated 2020).
# Read-outs that look alike come from different tables or passages of the source.
# How the values were obtained:
# HDAC3 = target: T1, HDAC3 (Homo sapiens, UniProt O15379); assay: HDAC biochemical assay of P5-P12 (Table P1); conditions: Table P1
# T1 construct: The recombinant, full-length HDAC protein (BPS Biosciences) was incubated; purchased BPS Biosciences
# T1 sequence (O15379 whole entry): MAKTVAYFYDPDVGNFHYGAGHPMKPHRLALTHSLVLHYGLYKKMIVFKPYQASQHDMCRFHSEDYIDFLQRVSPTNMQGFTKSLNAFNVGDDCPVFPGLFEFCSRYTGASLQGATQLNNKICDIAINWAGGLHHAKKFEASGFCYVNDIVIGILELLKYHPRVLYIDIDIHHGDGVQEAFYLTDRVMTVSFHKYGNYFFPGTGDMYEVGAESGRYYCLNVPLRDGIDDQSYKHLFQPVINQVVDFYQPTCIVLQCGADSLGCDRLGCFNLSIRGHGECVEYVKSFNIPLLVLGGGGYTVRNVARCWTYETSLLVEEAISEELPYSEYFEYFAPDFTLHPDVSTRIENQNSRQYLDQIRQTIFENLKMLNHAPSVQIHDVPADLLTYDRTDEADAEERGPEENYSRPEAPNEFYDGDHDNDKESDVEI
# T1 sequence (Q9Y618 395-489 partner limits assumed): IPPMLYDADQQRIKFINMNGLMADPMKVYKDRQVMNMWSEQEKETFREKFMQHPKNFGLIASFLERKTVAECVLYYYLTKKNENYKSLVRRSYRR
# HDACs 1-3 = assay: HDAC biochemical assay of P5-P12, summary statements
# [1] = tested on: 797 NUT midline carcinoma cell line; assay: 797 cell viability (ATPLite); assay type: cell-based; conditions: Table P2; 48 hours incubation
# Protocol: (§1) Addition of compound was performed with a JANUS Workstation (PerkinElmer Life and Analytical Sciences) using a 384-well pinhead tool that is calibrated to deliver 100 nL drug/well. After 48 hours of incubation with compound, cells were analyzed for cell viability using the ATPLite (Perkin Elmer) luminescent assay kit per the manufacturer's instructions. […] Replicate measurements were analyzed with respect to dose and estimates of IC50 were calculated by logistic regression (GraphPad Prism).
# [2] = tested on: 10326 NUT midline carcinoma cell line; assay: 10326 cell viability (ATPLite); assay type: cell-based; conditions: Table P2; 48 hours incubation
# Protocol: as §1
# HDAC6 = target: T2, HDAC6 (Homo sapiens, UniProt Q9UBN7); assay: HDAC biochemical assay of P5-P12 (Table P1); design: The recombinant, full-length HDAC protein (BPS Biosciences) was incubated; purchased BPS Biosciences; conditions: 200 μM TCEP
# T2 sequence (Q9UBN7 1-1215): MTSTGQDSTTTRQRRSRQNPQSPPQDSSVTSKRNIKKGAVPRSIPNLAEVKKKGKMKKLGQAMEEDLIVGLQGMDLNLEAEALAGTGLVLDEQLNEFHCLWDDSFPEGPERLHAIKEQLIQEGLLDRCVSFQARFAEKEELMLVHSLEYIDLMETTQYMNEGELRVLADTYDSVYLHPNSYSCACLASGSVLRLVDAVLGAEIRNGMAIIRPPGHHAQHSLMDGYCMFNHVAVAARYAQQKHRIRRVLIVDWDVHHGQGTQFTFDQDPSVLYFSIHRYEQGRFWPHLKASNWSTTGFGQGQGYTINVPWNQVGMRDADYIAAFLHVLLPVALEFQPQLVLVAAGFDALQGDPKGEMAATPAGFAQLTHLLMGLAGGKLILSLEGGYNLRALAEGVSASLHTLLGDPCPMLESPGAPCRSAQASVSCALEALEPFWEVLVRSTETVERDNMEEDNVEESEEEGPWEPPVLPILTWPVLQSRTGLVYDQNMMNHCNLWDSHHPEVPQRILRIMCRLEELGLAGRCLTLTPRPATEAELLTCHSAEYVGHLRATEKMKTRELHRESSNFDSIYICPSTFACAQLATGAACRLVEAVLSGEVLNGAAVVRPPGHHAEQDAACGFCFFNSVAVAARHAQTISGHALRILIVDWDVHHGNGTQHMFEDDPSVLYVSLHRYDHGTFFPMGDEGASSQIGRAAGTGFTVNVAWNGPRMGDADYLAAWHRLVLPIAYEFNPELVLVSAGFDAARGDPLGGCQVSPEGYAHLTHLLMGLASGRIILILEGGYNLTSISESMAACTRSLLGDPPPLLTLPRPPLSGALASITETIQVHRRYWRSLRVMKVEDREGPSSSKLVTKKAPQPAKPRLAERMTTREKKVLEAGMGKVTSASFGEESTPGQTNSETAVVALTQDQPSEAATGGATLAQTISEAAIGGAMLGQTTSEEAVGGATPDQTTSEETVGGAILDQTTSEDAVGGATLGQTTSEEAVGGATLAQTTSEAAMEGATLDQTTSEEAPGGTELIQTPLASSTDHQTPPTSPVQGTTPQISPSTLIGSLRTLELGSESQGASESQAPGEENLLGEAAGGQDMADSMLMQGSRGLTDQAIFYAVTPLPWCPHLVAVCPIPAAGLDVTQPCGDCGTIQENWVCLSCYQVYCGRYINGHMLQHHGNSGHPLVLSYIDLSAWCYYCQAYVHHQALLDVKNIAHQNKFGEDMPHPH
# HDAC8 = target: T3, HDAC8 (Homo sapiens, UniProt Q9BY41); assay: HDAC biochemical assay of P5-P12 (Table P1); design: The recombinant, full-length HDAC protein (BPS Biosciences) was incubated; purchased BPS Biosciences; conditions: Table P1
# T3 sequence (Q9BY41 1-377): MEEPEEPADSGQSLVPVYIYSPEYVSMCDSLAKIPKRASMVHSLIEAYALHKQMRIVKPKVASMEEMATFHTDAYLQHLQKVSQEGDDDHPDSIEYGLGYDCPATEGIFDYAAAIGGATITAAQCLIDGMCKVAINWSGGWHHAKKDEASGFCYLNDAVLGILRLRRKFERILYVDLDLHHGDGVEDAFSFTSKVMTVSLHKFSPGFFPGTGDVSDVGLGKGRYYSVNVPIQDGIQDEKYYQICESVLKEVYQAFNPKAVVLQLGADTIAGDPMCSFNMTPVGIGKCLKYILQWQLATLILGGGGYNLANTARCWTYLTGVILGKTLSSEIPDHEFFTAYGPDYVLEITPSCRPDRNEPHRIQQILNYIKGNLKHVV
# HDAC1 = HDAC1 (Homo sapiens, UniProt Q13547); assay: HDAC biochemical assay of P5-P12 (Table P1); design: The recombinant, full-length HDAC protein (BPS Biosciences) was incubated; purchased BPS Biosciences; conditions: Table P1
# Sequence of HDAC1 (Q13547 whole entry): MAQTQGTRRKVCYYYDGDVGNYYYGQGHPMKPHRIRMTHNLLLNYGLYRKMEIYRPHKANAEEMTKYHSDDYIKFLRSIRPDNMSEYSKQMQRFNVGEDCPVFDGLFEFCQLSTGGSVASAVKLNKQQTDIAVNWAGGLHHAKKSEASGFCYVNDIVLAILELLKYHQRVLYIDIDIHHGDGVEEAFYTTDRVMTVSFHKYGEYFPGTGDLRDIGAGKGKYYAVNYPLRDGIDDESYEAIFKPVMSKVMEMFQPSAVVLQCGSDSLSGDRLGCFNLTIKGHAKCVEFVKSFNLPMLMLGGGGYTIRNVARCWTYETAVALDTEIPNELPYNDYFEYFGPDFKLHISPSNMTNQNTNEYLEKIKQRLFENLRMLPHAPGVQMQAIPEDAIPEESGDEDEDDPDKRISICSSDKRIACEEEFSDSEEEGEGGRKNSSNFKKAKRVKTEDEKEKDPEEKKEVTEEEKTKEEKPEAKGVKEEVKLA
# HDAC2 = HDAC2 (Homo sapiens, UniProt Q92769); assay: HDAC biochemical assay of P5-P12 (Table P1); design: The recombinant, full-length HDAC protein (BPS Biosciences) was incubated; purchased BPS Biosciences; conditions: Table P1
# Sequence of HDAC2 (Q92769 whole entry): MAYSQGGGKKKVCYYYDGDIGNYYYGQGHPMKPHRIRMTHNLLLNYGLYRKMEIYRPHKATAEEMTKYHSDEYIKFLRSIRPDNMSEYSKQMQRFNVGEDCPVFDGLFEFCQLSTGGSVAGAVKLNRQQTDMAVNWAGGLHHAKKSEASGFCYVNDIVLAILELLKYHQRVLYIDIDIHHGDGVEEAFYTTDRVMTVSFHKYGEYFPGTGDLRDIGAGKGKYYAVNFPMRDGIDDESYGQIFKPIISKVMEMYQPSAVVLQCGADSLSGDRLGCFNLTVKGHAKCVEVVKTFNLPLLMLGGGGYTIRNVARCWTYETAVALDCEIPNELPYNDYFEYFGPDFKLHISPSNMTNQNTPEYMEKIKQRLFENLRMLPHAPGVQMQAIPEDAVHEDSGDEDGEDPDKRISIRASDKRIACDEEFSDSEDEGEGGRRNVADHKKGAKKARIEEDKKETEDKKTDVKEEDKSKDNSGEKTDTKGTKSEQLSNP
# [3] = the molecule shown is the open-chain precursor, amide bond, 16-membered ring, 3 steps
# NCI-60 cancer cell lines [4] = conditions: five-dose; for Percent of Cell Lines Impacted (%), GI50: 50% Growth Inhibition; for Percent of Cell Lines Impacted (%), LC50: 50% Lethal Concentration reached; for Percent of Cell Lines Impacted (%), TGI / Total Impacted Cell Lines (n), TGI: Total Growth Inhibition; for Average Concentration (M), TGI: average over impacted cell lines
# Description: (§2) All compounds submitted for screening were initially tested at a single high dose (10^-5 M) against the fill NCI 60 cell panel. Only compounds which satisfied pre-determined threshold inhibition criteria in a minimum number of cell lines progressed to a second round of testing utilizing a more comprehensive 5-dose inhibition assay. The threshold inhibition criteria for progression to the 5-dose assays were selected to efficiently capture compounds with anti-proliferative activity based on historical DTP screening data.
# (§3) Concentrations for G150, IC50, TGI, and LC50 were calculated for all cell lines tested, and heat plots were prepared.
# colon cancer cell lines [5] = conditions: for Percent of Cell Lines Impacted (%), LC50, Colon: five-dose
# Description: as §2, §3
# CNS cancer cell lines [6] = conditions: for Percent of Cell Lines Impacted (%), LC50, CNS: five-dose
# Description: as §2, §3
# melanoma cell lines [7] = conditions: for Percent of Cell Lines Impacted (%), LC50, Melanoma: five-dose
# Description: as §2, §3
# renal cancer cell lines = conditions: for Percent of Cell Lines Impacted (%), LC50, Renal: five-dose
# Description: as §2, §3
# NCI-60 cancer cell lines [8] = assay: cells
# Description: as §2, §3
# colon cancer cell lines [9] = assay: cells; conditions: read-out: Average Concentration (M), LC50, Colon
# Description: as §2, §3
# CNS cancer cell lines [10] = assay: cells; conditions: read-out: Average Concentration (M), LC50, CNS
# Description: as §2, §3
# melanoma cell lines [11] = assay: cells; conditions: read-out: Average Concentration (M), LC50, Melanoma
# Description: as §2, §3
# [12] = tested on: ovarian cancer cell lines
# Description: as §2, §3
# [13] = read-out: Average Concentration (M), GI50
compound,measurement,setting,value
"CC(C)[C@@H]1NC(=O)[C@]2(C)CSC(=N2)c2cccc(n2)CNC(=O)C[C@@H](/C=C/CCS)OC1=O [Compound P6, Depsipeptide Pyridyl “IN” Thiol]",IC50,HDAC3,3.07 nM
same,IC50 range in words for HDACs 1-3,HDACs 1-3,single digit nM range
same,IC50,[1],220 nM
same,IC50,[2],290 nM
same,IC50,HDAC6,48.5 nM
same,IC50,HDAC8,341 nM
"CC(C)[C@@H]1NC(=O)[C@]2(C)CSC(=N2)c2ccnc(c2)CNC(=O)C[C@@H](/C=C/CCS)OC1=O [Compound P8, Depsipeptide Pyridyl “OUT” Thiol]",IC50,HDAC3,2.31 nM
same,IC50 range in words for HDACs 1-3,HDACs 1-3,single digit nM range
same,IC50,[1],90 nM
same,IC50,[2],120 nM
same,IC50,HDAC1,2.2 nM
same,IC50,HDAC2,4.42 nM
same,IC50,HDAC6,35.2 nM
same,IC50,HDAC8,102 nM
"CC(C)[C@@H]1NC(=O)[C@]2(C)CSC(=N2)c2ccnc(c2)CNC(=O)C[C@@H](/C=C/CCS)NC1=O [Compound P12, Peptide Isostere Pyridyl “OUT” Thiol]",IC50,HDAC3,14.6 nM
same,IC50 range in words for HDACs 1-3,HDACs 1-3,double-digit nM range
same,IC50,HDAC1,13.2 nM
same,IC50,HDAC2,20.8 nM
same,IC50,HDAC6,2850 nM
same,IC50,HDAC8,1490 nM
CC(C)[C@@H]1NC(=O)[C@]2(C)CSC(=N2)c2csc(n2)CNC(=O)C[C@@H](/C=C/CCS)NC1=O [Largazole peptide isostere thiol],IC50,[1],1740 nM
same,IC50,[2],11900 nM
same,IC50,HDAC8,255 nM
COC(=O)C[C@@H](/C=C/CCSC(c1ccccc1)(c1ccccc1)c1ccccc1)NC(=O)[C@@H](NC(=O)[C@]1(C)CSC(c2cccc(CNC(=O)OC(C)(C)C)n2)=N1)C(C)C [Trityl Protected Peptide Isostere Pyridyl “IN” Macrocycle],"ring closure, isolated yield",[3],33%
COC(=O)C[C@@H](/C=C/CCSC(c1ccccc1)(c1ccccc1)c1ccccc1)NC(=O)[C@@H](NC(=O)[C@]1(C)CSC(c2ccnc(CNC(=O)OC(C)(C)C)c2)=N1)C(C)C [Trityl Protected Peptide Isostere Pyridyl “OUT” Macrocycle],"ring closure, isolated yield","[3]; HATU/HOBt/DIEA, MeCN, 0.97 mM, […]",32%
CCCCCCCC(=O)SCC/C=C/[C@@H]1CC(=O)NCc2cc(ccn2)C2=N[C@@](C)(CS2)C(=O)N[C@@H](C(C)C)C(=O)O1 [compound of formula A],"Percent of Cell Lines Impacted (%), GI50",NCI-60 cancer cell lines [4],100%
same,"Percent of Cell Lines Impacted (%), LC50",NCI-60 cancer cell lines [4],16%
same,"Percent of Cell Lines Impacted (%), TGI",NCI-60 cancer cell lines [4],56%
same,"Total Impacted Cell Lines (n), TGI",NCI-60 cancer cell lines [4],32
same,"Average Concentration (M), TGI",NCI-60 cancer cell lines [4],8.49e-07 M
same,"Total Impacted Cell Lines (n), LC50, Colon",colon cancer cell lines [5],3
same,"Percent of Cell Lines Impacted (%), LC50, Colon",colon cancer cell lines [5],43%
same,"Total Impacted Cell Lines (n), LC50, CNS",CNS cancer cell lines [6],1
same,"Percent of Cell Lines Impacted (%), LC50, CNS",CNS cancer cell lines [6],20%
same,"Total Impacted Cell Lines (n), LC50, Melanoma",melanoma cell lines [7],3
same,"Percent of Cell Lines Impacted (%), LC50, Melanoma",melanoma cell lines [7],38%
same,"Total Impacted Cell Lines (n), LC50, Renal",renal cancer cell lines,2
same,"Percent of Cell Lines Impacted (%), LC50, Renal",renal cancer cell lines,25%
same,GI50,NCI-60 cancer cell lines [8]; [13],3.29e-08 M
same,GI50,"NCI-60 cancer cell lines [8]; read-out: GI50 concentrations (M), order of magnitude",1e-08 M
same,CC50,colon cancer cell lines [9],1.48e-06 M
same,CC50,CNS cancer cell lines [10],1.38e-05 M
same,CC50,melanoma cell lines [11],2.02e-07 M
CCCCCCCC(=O)SCC/C=C/[C@@H]1CC(=O)NCc2nc(cs2)C2=N[C@@](C)(CS2)C(=O)N[C@@H](C(C)C)C(=O)N1 [compound of formula aa],"Percent of Cell Lines Impacted (%), GI50",NCI-60 cancer cell lines [4],100%
same,"Percent of Cell Lines Impacted (%), LC50",NCI-60 cancer cell lines [4],17%
same,"Percent of Cell Lines Impacted (%), TGI",NCI-60 cancer cell lines [4],64%
same,"Total Impacted Cell Lines (n), TGI",NCI-60 cancer cell lines [4],37
same,"Average Concentration (M), TGI",NCI-60 cancer cell lines [4],1.31e-05 M
same,"Total Impacted Cell Lines (n), LC50, Colon",colon cancer cell lines [5],3
same,"Percent of Cell Lines Impacted (%), LC50, Colon",colon cancer cell lines [5],43%
same,"Total Impacted Cell Lines (n), LC50, CNS",CNS cancer cell lines [6],2
same,"Percent of Cell Lines Impacted (%), LC50, CNS",CNS cancer cell lines [6],33%
same,"Total Impacted Cell Lines (n), LC50, Melanoma",melanoma cell lines [7],2
same,"Percent of Cell Lines Impacted (%), LC50, Melanoma",melanoma cell lines [7],25%
same,"Total Impacted Cell Lines (n), LC50, Ovarian",[12],1
same,"Percent of Cell Lines Impacted (%), LC50, Ovarian",[12]; five-dose,14%
same,"Total Impacted Cell Lines (n), LC50, Renal",renal cancer cell lines,2
same,"Percent of Cell Lines Impacted (%), LC50, Renal",renal cancer cell lines,25%
same,GI50,NCI-60 cancer cell lines [8]; [13],6.56e-07 M
same,CC50,colon cancer cell lines [9],9.45e-06 M
same,CC50,CNS cancer cell lines [10],7.17e-06 M
same,CC50,melanoma cell lines [11],6.52e-06 M
